From patent US20250242060A1, “CHEMOGENETIC REGULATION OF PEPTIDE FUNCTION” (priority 2022, published 2025)
Entries after “also recorded” stand apart in the source; their conditions may differ.

What was measured:
[1] = tested on: mu-opioid receptor (MOR); experiment: GloSensor cAMP assay, single chain met-enkephalin-CapC-MOR; details: HEK 293T, forskolin stimulated
Excerpt: A cyclic adenosine monophosphate (cAMP)-dependent luciferase (GloSensor) was used to monitor the activation of mu-opioid receptor. By expressing the real-time sensor GloSensor in cells, greater luminescence is observed when the cAMP concentration is high, and lower luminescence when the cAMP concentration is low. The GloSensor assay complements the split NanoLuc assay because it measures a downstream event rather than just binding between a G protein and the receptor i.e., membrane tethered opioid peptides (M-PROBE) activation not only causes G protein recruitment, but also downstream signaling events.
To test whether the M-PROBE induces downstream signaling as a free opioid, and that function of met-enkephalin is well-preserved in the membrane-tethered geometry, the same single chain met-enkephalin-CapC-MOR was expressed on the membrane of HEK 293T cells, and co-transfected cells with the cAMP-dependent luciferase. After overnight protein expression, HEK 293T cells were stimulated with forskolin to enhance the cAMP concentration within the cells. MOR is an inhibitory G-protein coupled receptor (GPCR), and its activation leads to decreased cAMP levels. A high cAMP concentration magnifies the effect of MOR activation.

[2] = target: FKBP12(F36V) (Homo sapiens, UniProt P62942, F37V); details: cited from earlier work
[3] = tested on: CAPs-caged TEVcs with TEV protease in HEK 293T cells; experiment: Shield-1 induced delocalization from the plasma membrane to the cytosol; assay type: cell-based; details: 10 μM shield-1, 18 h
Method: CAPs-caged TEVcs were anchored to the plasma membrane, followed by the POI (FIG. 9c). Under no shield-1 conditions, TEVcs are inaccessible to the co-expressed TEV protease, and the POI remains localized on the plasma membrane. With shield-1, TEVcs are uncaged and cleaved by TEV protease, thereby releasing the POI from the cell membrane.
Two extra wells without any infection are also plated for background subtraction. […] The two non-infection wells are treated with shield-1 and without shield-1, respectively. HEK 293T cells were incubated for 18 h at 37° C. before imaging.

[4] = tested on: CAPs-caged NLS (PKIt NES-EGFP-CapN-NLS-CapC) in HEK 293T cells; experiment: Shield-1 controlled nuclear-cytoplasmic protein distribution; assay type: cell-based; details: 10 μM shield-1, 18 h
Excerpt: The nucleocytoplasmic distribution of many eukaryotic proteins is a common determinant of their functions^30. Previously, NLS has been controlled by light through customized engineering with the AsLOV2 domain^13,14. To test if NLS is controlled by CAPs in a shield-I-dependent manner, a single-chain construct was designed in which a POI is expressed as a fusion protein with CAPs-caged NLS (FIG. 9e). […] Addition of shield-1 opens the CAPs and exposes NLS to endogenous importins, bringing the POI to the nucleus. Due to the strength of the NLS, a weak nuclear export signal, PKIt^13, was added to the construct to reduce the nuclear localization of the protein in the basal state.
HEK 293T cells were incubated for 18 h at 37° C. before imaging. […] Individual cells and the nuclei are determined by mCherry signal. Mean intensity and area are acquired with Nikon NIS-Elements analysis module. Mean intensities were subtracted by background mean intensity, and the resulting number is multiplied with the area to give total intensities. The EGFP distribution ratio was calculated by the total intensity of EGFP in the cytosol to that in the whole cell. P value was determined by unpaired two-tailed t-tests.

[5] = tested on: CAPs-caged SsrA split transcription factor in HEK 293T cells; experiment: Shield-1 dependent gene transcription activation, Gal4 DBD, UAS-mCherry reporter; assay type: cell-based; design: Gene expression (mCherry) at different shield-1 concentrations: dose or concentration left out as unconfirmed; details: for Shield-1-induced increase in mCherry intensity: + vs - shield-1
[6] = target: T1, LID (FKBP with original binding sequence) fused to SsrA (Homo sapiens, UniProt P62942, F37V); experiment: Yeast surface binding assay, SsrA caged by LID; details: LID degradation sequence replaced with SsrA
T1 construct: expressed in transfected cells; host or cells: Saccharomyces cerevisiae EBY100, surface display from pCTCON2
Method: (§1) The ability of LID to cage two short peptides that have been previously shown to be controllable by the AsLOV2 domain was tested. […] The degradation sequence (RRRGN) in LID was replaced with TEVcs or SsrA, and the remainder of the binding sequence and linker was retained (FIG. 1d).
Yeast that expressed SsrA (CapC constructs) was subject to APEX2 labeling^40 prior to labeling with antibody-fluorophore and streptavidin-fluorophore conjugates. Samples were incubated with 100 μL of PBSB containing SspB-APEX2 (expressed and purified as described above, under “Expression and purification of SspB-APEX2”) and 5 μM shield-1 at room temperature for 10 min with rotation. […]
(§2) After TEVp or APEX2 labeling, samples were labeled with antibody-fluorophore and/or streptavidin-fluorophore conjugates. […] All samples were resuspended in PBSB and analyzed or sorted by FACS (fluorescence-activated cell sorting, following procedures described under “FACS analysis and library selection”) within 24 h of labeling.
(§3) After labeling according to the procedures described above (under “Yeast labeling”), non-library yeast samples were analyzed with an LSRFortessa cell analyzer flow cytometer (BD Biosciences) equipped with 640 nm laser and 670/14 emission filter (for Alexa Fluor647) as well as 561 nm laser and 586/15 emission filter (for Alexa Fluor568 and PE). […]

[7] = target: CAPs-caged SsrA (mCherry-CapN-SsrA-CapC-CAAX) with SspB-EGFP in HEK 293T cells (Homo sapiens, UniProt P62942, F37V); experiment: Shield-1 induced protein translocation to the plasma membrane; details: 1 μM shield-1
Excerpt: To test use of CAPs for protein translocation, a shield-1 induced membrane localization system was designed (FIG. 9). In this design, CAPs-caged SsrA peptide is localized on the plasma membrane of HEK 293T cells by fusing to a transmembrane domain. The interacting partner of SsrA, SspB protein, is fused to the protein of interest (POI). As an example, evolved green fluorescent protein (EGFP) was used as the POI. Without shield-1, no binding between SsrA and SspB occurs, and EGFP is found throughout the cell.
Cells were incubated for 24 h at 37° C. before further processing. HEK293T cells were imaged with 60× oil-immersion objective on the Nikon inverted confocal microscope. Shield-1 dissolved in complete growth media was added gently to the top of the media to 1 μM during imaging. The intensity profile was acquired with Nikon NIS-Elements analysis module and plotted by GraphPad Prism 7.

[8] = target: T2, LID (FKBP with original binding sequence) fused to TEVcs (Homo sapiens, UniProt P62942, F37V); experiment: Yeast surface protease cleavage assay, TEVcs caged by LID; assay type: biochemical; details: LID degradation sequence replaced with TEVcs
T2 construct: TEVcs (ENLYFQ/G) (C); HA (C); expressed in transfected cells; host or cells: Saccharomyces cerevisiae EBY100, surface display from pCTCON2
Method: as §1
Yeast that expressed TEV protease cleavage site (CapN constructs) was treated with TEVp prior to labeling with antibody-fluorophore conjugate. Samples were incubated with 200 μL PBSB containing TEVp (expressed and purified as described above, under “Expression and purification of TEV protease”) and 5 μM shield-1 at 4° C. for 3 h with rotation. For negative control, either TEVp or shield-1, or both, was not present in PBSB. […]
as §2, §3

[9] = target: T3, CapN (Homo sapiens, UniProt P62942, F37V); experiment: Shield-1 reversibility characterization with CapN-caged SsrA on yeast surface; assay type: binding; details: 10 min shield-1, washed, incubated up to 12 h without shield-1
T3 construct: expressed in transfected cells; host or cells: Saccharomyces cerevisiae EBY100, surface display from pCTCON2
Method: FIG. 4. […] Yeast cells were incubated with shield-1 for 10 min, followed by washing to remove excess shield-1. […] Values are median biotin intensity of FLAG-positive cells (Q2+Q4). […] This experiment was performed once.
Yeast that expressed SsrA (CapC constructs) was subject to APEX2 labeling^40 prior to labeling with antibody-fluorophore and streptavidin-fluorophore conjugates. Samples were incubated with 100 μL of PBSB containing SspB-APEX2 (expressed and purified as described above, under “Expression and purification of SspB-APEX2”) and 5 μM shield-1 at room temperature for 10 min with rotation. For negative controls, either SspB-APEX2 or shield-1, or both, was not present in PBSB. […]
as §2, §3

[10] = target: T4, CAPs-caged SsrA split transcription factor (P2A construct u4) in rat cortical neurons UniProt P62942, F37V); experiment: Shield-1 dependent gene transcription in cultured neurons, TetR DBD, TRE-mCherry reporter; assay type: cell-based; details: AAV, 2 μM shield-1, 24 h
T4 construct: P2A self-cleaving peptide, separating it from the SspB-VP16 part (cleaved yes); host or cells: cultured rat cortical neurons, AAV
Method: To test the CAPs chemical-dependent transcriptional system in neuroscience applications, it was tested in cultured neurons. To enable homogeneous expression of DNA in stringent experiments, we generated single viral constructs that express both the DNA-binding and the transcription-activation domains via the self-cleaving peptide P2A or the internal ribosome entry site (TRES) were constructed (FIG. 12b). […] The P2A construct was then used to introduce the TetR DBD and VP16 transcription-activation domain into cultured rat cortical neurons through adeno-associated viruses (AAV), together with another AAV encoding the TRE-mCherry reporter gene. Shield-1 induced 44-fold increase in mCherry reporter gene expression compared to the no shield-1 condition (FIG. 12e and FIG. 19), showing that this system works robustly in cultured neurons.
Rat cortical neurons (Thermo Fisher Scientific, Cat #A1084001) were plated according to the user protocol. […] The viable cell density was determined by adding 10 μL of the cell suspension to 10 μl 0.4% Trypan blue, followed by cell counting using hemocytometer. […]
For neuronal infection, either concentrated AAVes or supernatant AAVes were added the neurons at DIV5-DIV10 (days in vitro). […] P values were determined by unpaired two-tailed t-tests.

[11] = tested on: mu-opioid receptor (MOR); experiment: Split NanoLuc assay, 1-chain CapC-caged met-enkephalin fused to opioid receptor, Nb44 recruitment; assay type: cell-based; details: HEK293T cells, 1-chain design
Excerpt: To test shield-1 chemical-dependent regulation of an opioid peptide, CapC-caged met-enkephalin was fused directly onto the N-terminus of the opioid receptor as shown in the right panel of FIG. 22. In this design, the M-PROBE cell membrane tethered opioid peptides (M-PROBE) and the opioid receptors were expressed in a fixed ratio in close proximity.

T3 sequence (P62942 with tags, fused parts or gaps F37V): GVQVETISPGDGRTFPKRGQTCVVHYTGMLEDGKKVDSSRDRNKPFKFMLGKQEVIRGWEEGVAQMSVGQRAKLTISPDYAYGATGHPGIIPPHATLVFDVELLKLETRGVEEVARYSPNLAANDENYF
Chain of FKBP12(F36V) (P62942 whole entry F37V): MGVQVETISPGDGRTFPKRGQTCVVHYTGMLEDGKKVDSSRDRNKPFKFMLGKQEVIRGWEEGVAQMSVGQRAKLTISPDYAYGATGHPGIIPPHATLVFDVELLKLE
T2 sequence (P62942 with tags, fused parts or gaps F37V limits assumed): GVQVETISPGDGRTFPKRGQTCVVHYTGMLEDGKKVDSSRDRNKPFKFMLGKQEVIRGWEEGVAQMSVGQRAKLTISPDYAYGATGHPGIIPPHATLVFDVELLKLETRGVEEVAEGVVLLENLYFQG
T1 sequence (P62942 with tags, fused parts or gaps F37V): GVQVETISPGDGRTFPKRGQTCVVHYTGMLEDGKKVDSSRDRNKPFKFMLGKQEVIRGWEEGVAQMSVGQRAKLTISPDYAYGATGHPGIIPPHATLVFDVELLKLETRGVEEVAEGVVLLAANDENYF
Chain of CAPs-caged SsrA (mCherry-CapN-SsrA-CapC-CAAX) with SspB-EGFP in HEK 293T cells (P62942 with tags, fused parts or gaps F37V): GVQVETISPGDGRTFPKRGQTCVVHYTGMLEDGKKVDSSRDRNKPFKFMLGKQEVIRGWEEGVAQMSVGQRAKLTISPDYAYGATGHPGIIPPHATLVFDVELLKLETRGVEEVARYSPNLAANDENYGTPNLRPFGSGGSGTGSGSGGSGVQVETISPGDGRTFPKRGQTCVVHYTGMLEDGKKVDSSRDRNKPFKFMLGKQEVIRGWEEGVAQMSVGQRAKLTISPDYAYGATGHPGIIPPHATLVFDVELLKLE

SMILES: C[C@@H](NC(=O)[C@@H](N)Cc1ccc(O)cc1)C(=O)NCC(=O)N(C)[C@@H](Cc1ccccc1)C(=O)NCCO [DAMGO]
- Decrease in luminescence ([1]; 10 micromolar): ~80%

SMILES: CC[C@H](C(=O)N1CCCC[C@H]1C(=O)O[C@H](CCc1ccc(OC)c(OC)c1)c1cccc(OCCN2CCOCC2)c1)c1cc(OC)c(OC)c(OC)c1 [shield-1]
- Affinity for FKBP relative to wild-type FKBP ([2]; FKBP12(F36V) vs wild-type FKBP): over 1000 fold
- Affinity for FKBP ([2]; FKBP12(F36V)): sub-nanomolar
- EGFP localization after shield-1 addition [3]: depletes EGFP from the plasma membrane; also recorded: depleted the EGFP from the plasma membrane and significantly increased its presence in the cytoplasm
- EGFP nuclear-cytosolic distribution after shield-1 addition [4]: depleted from the cytosol and preferentially localized in the nucleus
- Shield-1-induced increase in mCherry intensity ([5]; CAPs (tandem) caged 8-amino-acid SsrA): ~25 fold
- Shield-1 dependent reporter gene expression change ([5]; CAPs caged 7-amino-acid SsrA (AANDENY), construct u3): 156 fold
- Shield-1-induced increase in mCherry intensity ([5]; CapN caged 8-amino-acid SsrA): ~4 fold
- Gene expression (mCherry) at different shield-1 concentrations ([5]; construct u3): robust gene expression
- Shield-1 incubation period sufficient to induce gene expression ([5]; construct u3, 1 μM shield-1, imaged 24 h after addition): 30 min
- Gene expression induction ([5]; construct u3, overnight incubation, shield-1 50 nM or above): > 30 fold
- Gene expression ([5]; construct u3, overnight incubation, shield-1 below 10 nM): did not induce gene expression
- Shield-1 dependent dynamic range ([5]; maximum over caged peptides): up to 156 fold
- Level of EGFP (transcription-activation domain expression) ([5]; shield-1 added to EGFP-SspB-VP16 alone): No difference was found; also recorded: did not increase the level of EGFP
- Increase in mCherry expression ([5]; single viral IRES construct (u5)): 123 fold
- Increase in mCherry expression ([5]; single viral P2A construct (u4)): 83 fold
- Shield-1 dependence of SsrA accessibility [6]: not observed
- Time to EGFP translocation to the plasma membrane [7]: within seconds
- Decrease in luminescence ([1]; shield-1 treated): ~50%
- Shield-1 dependence of TEVcs accessibility [8]: not observed
- Biotin signal / CapN state after washing away shield-1 [9]: No decrease in biotin signal; also recorded: CapN remained open
- Increase in mCherry reporter gene expression vs no shield-1 [10]: 44 fold
- Luminescence signal (RLU) [11]: increase the signal
